Measurements reported in patent publication US20250368627A1, “PYRAZOLESULFONAMIDES AS ANTITUMOR AGENTS” (Peloton Therapeutics, Inc., a fully owned subsidiary of …, priority 2019, published 2025).

Legend:
[1] = tested on: HCT116 human colorectal carcinoma cells; experiment: CellTiter-Glo Luminescent Cell Viability Assay; assay type: cell-based; settings: HCT-116, 72 h, 3 days
In short: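 CellTiter-Glo luminescence gave viability after 3 days of compound exposure in HCT116 cells grown in DMEM/10% FBS. Final concentrations ran from 5 to 0.0002 […] in 1:3 steps, each in triplicate, with IC50 derived from the curves.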

[2] = molecular target: T1, DDB1DB/DCAF15 and RBM39 R1R2 complex (Homo sapiens, UniProt Q14498+Q66K64); experiment: DCAF15 RBM39 Complex Formation Assay (FRET); assay type: binding; settings: FRET ratio Em 665/Em 615, incubated overnight at 4° C.
T1 construct: Amino acids 150 to 331 of RBM39 were cloned into pGEX4T3; GST (from vector pGEX4T3); TEV cleavage site (N); made in house; host or cells: DDB1DB/His-DCAF15: baculovirus/Sf9 co-expression; RBM39 R1R2: E. coli (pGEX4T3)
T1 sequence (Q66K64 whole entry, the tested form may be a part): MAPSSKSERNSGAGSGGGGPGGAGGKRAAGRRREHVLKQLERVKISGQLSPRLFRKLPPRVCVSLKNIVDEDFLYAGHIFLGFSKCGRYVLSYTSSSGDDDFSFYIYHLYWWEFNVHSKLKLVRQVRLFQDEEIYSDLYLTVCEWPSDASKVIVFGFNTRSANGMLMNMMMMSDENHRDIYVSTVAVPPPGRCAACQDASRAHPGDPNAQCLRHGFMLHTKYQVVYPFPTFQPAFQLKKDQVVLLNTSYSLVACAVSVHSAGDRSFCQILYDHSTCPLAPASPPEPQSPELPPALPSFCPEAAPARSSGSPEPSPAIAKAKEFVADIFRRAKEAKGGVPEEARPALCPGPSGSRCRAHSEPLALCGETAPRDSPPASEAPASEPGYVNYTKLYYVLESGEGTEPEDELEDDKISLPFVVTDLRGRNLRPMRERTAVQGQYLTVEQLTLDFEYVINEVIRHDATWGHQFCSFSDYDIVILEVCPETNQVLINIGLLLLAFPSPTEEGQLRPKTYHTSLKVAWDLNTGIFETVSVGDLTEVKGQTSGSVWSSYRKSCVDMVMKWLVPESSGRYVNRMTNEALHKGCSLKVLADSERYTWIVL
T1 sequence (Q14498 150-331): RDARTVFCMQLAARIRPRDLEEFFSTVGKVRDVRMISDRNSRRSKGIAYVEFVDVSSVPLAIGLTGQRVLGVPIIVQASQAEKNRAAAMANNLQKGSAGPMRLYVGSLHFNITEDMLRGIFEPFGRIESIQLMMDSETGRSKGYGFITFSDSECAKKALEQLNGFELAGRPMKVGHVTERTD
T1 sequence (Q16531 with tags, fused parts or gaps DEL396-708 partner): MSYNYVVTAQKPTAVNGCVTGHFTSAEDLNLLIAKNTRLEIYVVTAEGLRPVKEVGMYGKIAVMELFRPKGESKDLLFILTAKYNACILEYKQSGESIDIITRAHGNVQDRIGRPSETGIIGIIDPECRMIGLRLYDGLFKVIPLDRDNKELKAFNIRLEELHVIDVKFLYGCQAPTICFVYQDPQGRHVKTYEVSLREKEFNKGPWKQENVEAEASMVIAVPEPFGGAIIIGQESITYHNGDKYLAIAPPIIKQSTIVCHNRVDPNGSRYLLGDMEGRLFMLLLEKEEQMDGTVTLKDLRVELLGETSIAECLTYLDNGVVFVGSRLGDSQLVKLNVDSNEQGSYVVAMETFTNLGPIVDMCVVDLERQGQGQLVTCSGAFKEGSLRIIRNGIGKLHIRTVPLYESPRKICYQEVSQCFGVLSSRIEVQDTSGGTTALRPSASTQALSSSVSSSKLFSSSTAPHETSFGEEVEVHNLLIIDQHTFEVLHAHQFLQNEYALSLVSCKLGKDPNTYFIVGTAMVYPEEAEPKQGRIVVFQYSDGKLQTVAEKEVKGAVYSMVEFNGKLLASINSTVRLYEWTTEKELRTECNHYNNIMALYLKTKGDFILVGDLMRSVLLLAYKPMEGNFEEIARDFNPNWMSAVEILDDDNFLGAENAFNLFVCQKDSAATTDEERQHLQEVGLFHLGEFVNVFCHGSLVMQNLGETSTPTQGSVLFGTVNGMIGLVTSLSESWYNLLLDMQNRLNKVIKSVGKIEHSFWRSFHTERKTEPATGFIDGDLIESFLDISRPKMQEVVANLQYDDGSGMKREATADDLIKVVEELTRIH
In short: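 Ternary complex formation read by TR-FRET (Em 665/615, excitation 340 nm) after overnight incubation at 4° C of 20 nM baculovirus DDB1DB/His-DCAF15 and 50 nM E. coli RBM39 RRM1-RRM2 FLAG fragment with 14-point, 3-fold compound dilutions from 1 μM; EC50 from 4-parameter fit.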

EC50 [1] [nM]	IC50 [2] [nM]	SMILES
< 250	< 250	Cc1ccc(NS(=O)(=O)c2cnn([C@H](C)CO)c2N)c2[nH]cc(C#N)c12 [Compound 303, 5-amino-N-(3-cyano-4-methyl-1H-indol-7-yl)-1-[(1R)-2-hydroxy-1-methyl-ethyl]pyrazole-4-sulfonamide]
> 1000	< 250	Cc1ccc(NS(=O)(=O)c2cnn(CC(C)(C)S(C)(=O)=O)c2)c2[nH]cc(C#N)c12 [Compound 84, N-(3-cyano-4-methyl-1H-indol-7-yl)-1-(2-methyl-2-methylsulfonyl-propyl)pyrazole-4-sulfonamide]
250 to 1000	< 250	CC(C)(O)CCn1cc(S(=O)(=O)Nc2ccc(F)c3c(C#N)c[nH]c23)cn1 [Compound 222, N-(3-cyano-4-fluoro-1H-indol-7-yl)-1-(3-hydroxy-3-methyl-butyl)pyrazole-4-sulfonamide]
250 to 1000	< 250	N#Cc1c[nH]c2c(NS(=O)(=O)c3cnn(C45CC(C4)C5)c3)ccc(Cl)c12 [Compound 223, 1-(3-bicyclo[1.1.1]pentanyl)-N-(4-chloro-3-cyano-1H-indol-7-yl)pyrazole-4-sulfonamide]
250 to 1000	< 250	Cc1ccc(NS(=O)(=O)c2cnn(C3(CO)COC3)c2)c2[nH]cc(C#N)c12 [Compound 116, N-(3-cyano-4-methyl-1H-indol-7-yl)-1-[3-(hydroxymethyl)oxetan-3-yl]pyrazole-4-sulfonamide]
> 1000	< 250	O=S(=O)(Nc1cccc2c(Cl)c[nH]c12)c1cnn(CC2CNC2)c1 [Compound 43, 1-(azetidin-3-ylmethyl)-N-(3-chloro-1H-indol-7-yl)pyrazole-4-sulfonamide]
> 1000	< 250	N#Cc1c[nH]c2c(NS(=O)(=O)c3cnn(CF)c3N)ccc(F)c12 [Compound 309, 5-amino-N-(3-cyano-4-fluoro-1H-indol-7-yl)-1-(fluoromethyl)pyrazole-4-sulfonamide]
250 to 1000	< 250	Cc1ccc(NS(=O)(=O)c2cnn(S(=O)(=O)CF)c2)c2[nH]cc(C#N)c12 [Compound 100, N-(3-cyano-4-methyl-1H-indol-7-yl)-1-(fluoromethylsulfonyl)pyrazole-4-sulfonamide]
250 to 1000	< 250	N#Cc1c[nH]c2c(NS(=O)(=O)c3cnn(C[C@H](N)C(F)(F)F)c3)ccc(Cl)c12 [Compound 248, 1-[(2S)-2-amino-3,3,3-trifluoro-propyl]-N-(4-chloro-3-cyano-1H-indol-7-yl)pyrazole-4-sulfonamide]
> 1000	< 250	Cc1ccc(NS(=O)(=O)c2cnn(C3CCN(CC(F)(F)F)CC3)c2)c2[nH]cc(C#N)c12 [Compound 87, N-(3-cyano-4-methyl-1H-indol-7-yl)-1-[1-(2,2,2-trifluoroethyl)-4-piperidyl]pyrazole-4-sulfonamide]
> 1000	< 250	CC(C)(C)OC(=O)N1CCC(n2cc(S(=O)(=O)Nc3cccc4c(Cl)c[nH]c34)cn2)CC1 [Compound 26, tert-butyl 4-[4-[(3-chloro-1H-indol-7-yl)sulfamoyl]pyrazol-1-yl]piperidine-1-carboxylate]

Further lines, the compound ahead of its results:

SMILES	EC50 [1] [nM]	IC50 [2] [nM]
C[C@@H](O)Cn1cc(S(=O)(=O)Nc2ccc(Cl)c3c(C#N)c[nH]c23)cn1 [Compound 197, N-(4-chloro-3-cyano-1H-indol-7-yl)-1-[(2R)-2-hydroxypropyl]pyrazole-4-sulfonamide]	250 to 1000	< 250
[2H]C([2H])([2H])n1cc(S(=O)(=O)Nc2ccc(C)c3c(C#N)c[nH]c23)cn1 [Compound 110, N-(3-Cyano-4-methyl-1H-indol-7-yl)-1-(trideuteriomethyl)pyrazole-4-sulfonamide]	250 to 1000	< 250
Cc1ccc(NS(=O)(=O)c2cnn(C(C)CCO)c2)c2[nH]cc(C#N)c12 (stereo not drawn) [Compound 236, N-(3-cyano-4-methyl-1H-indol-7-yl)-1-(3-hydroxy-1-methyl-propyl)pyrazole-4-sulfonamide]	< 250	< 250
Cc1ccc(NS(=O)(=O)c2cnn(C)c2Cl)c2[nH]cc(C#N)c12 [Compound 155, 5-chloro-N-(3-cyano-4-methyl-1H-indol-7-yl)-1-methyl-pyrazole-4-sulfonamide]	< 250	< 250
Cc1ccc(NS(=O)(=O)c2cn(C(C)(C)CO)nc2Cl)c2[nH]cc(C#N)c12 [Compound 252, 3-chloro-N-(3-cyano-4-methyl-1H-indol-7-yl)-1-(2-hydroxy-1,1-dimethyl-ethyl)pyrazole-4-sulfonamide]	250 to 1000	< 250
CC(C)(C)OC(=O)N1CC(F)(Cn2cc(S(=O)(=O)Nc3ccc(Cl)c4c(C#N)c[nH]c34)cn2)C1 [Compound 254, tert-butyl 3-[[4-[(4-chloro-3-cyano-1H-indol-7-yl)sulfamoyl]pyrazol-1-yl]methyl]-3-fluoro-azetidine-1-carboxylate]	250 to 1000	< 250
O=S(=O)(Nc1cccc2c(Cl)c[nH]c12)c1cnn(-c2ncc(Cl)cc2F)c1 [Compound 15, 1-(5-chloro-3-fluoro-2-pyridyl)-N-(3-chloro-1H-indol-7-yl)pyrazole-4-sulfonamide]	> 1000	< 250
CC1(n2ncc(S(=O)(=O)Nc3ccc(Cl)c4c(C#N)c[nH]c34)c2F)COC1 [Compound 130, N-(4-chloro-3-cyano-1H-indol-7-yl)-5-fluoro-1-(3-methyloxetan-3-yl)pyrazole-4-sulfonamide]	250 to 1000	< 250
C[C@H](O)[C@@H](C)n1cc(S(=O)(=O)Nc2ccc(Cl)c3c(C#N)c[nH]c23)cn1 [Compound 275, N-(4-chloro-3-cyano-1H-indol-7-yl)-1-[(1R,2S)-2-hydroxy-1-methyl-propyl]pyrazole-4-sulfonamide]	250 to 1000	< 250
N#Cc1c[nH]c2c(NS(=O)(=O)c3cnn(CF)c3)ccc(F)c12 [Compound 302, N-(3-cyano-4-fluoro-1H-indol-7-yl)-1-(fluoromethyl)pyrazole-4-sulfonamide]	250 to 1000	< 250
CNC(=O)Cn1cc(S(=O)(=O)Nc2ccc(C)c3c(C#N)c[nH]c23)cn1 [Compound 139, 2-[4-[(3-cyano-4-methyl-1H-indol-7-yl)sulfamoyl]pyrazol-1-yl]-N-methyl-acetamide]	> 1000	< 250
Cc1ccc(NS(=O)(=O)c2cnn(C(F)F)c2N)c2[nH]cc(C#N)c12 [Compound 284, 5-amino-N-(3-cyano-4-methyl-1H-indol-7-yl)-1-(difluoromethyl)pyrazole-4-sulfonamide]	< 250	< 250
Cn1cc(S(=O)(=O)Nc2cccc3c(Cl)c(F)[nH]c23)cn1 [Compound 129, N-(3-chloro-2-fluoro-1H-indol-7-yl)-1-methyl-pyrazole-4-sulfonamide]	> 1000	< 250
C[C@H](CO)n1cc(S(=O)(=O)Nc2ccc(Cl)c3c(C#N)c[nH]c23)cn1 [Compound 208, (R)—N-(4-chloro-3-cyano-1H-indol-7-yl)-1-(1-hydroxypropan-2-yl)-1H-pyrazole-4-sulfonamide]	250 to 1000	< 250
N#Cc1c[nH]c2c(NS(=O)(=O)c3cnn(CC(F)F)c3)ccc(C(F)(F)F)c12 [Compound 104, N-[3-cyano-4-(trifluoromethyl)-1H-indol-7-yl]-1-(2,2-difluoroethyl)pyrazole-4-sulfonamide]	250 to 1000	< 250
Cn1ncc(S(=O)(=O)Nc2ccc(Cl)c3c(C#N)c[nH]c23)c1F [Compound 122, N-(4-chloro-3-cyano-1H-indol-7-yl)-5-fluoro-1-methyl-pyrazole-4-sulfonamide]	< 250	< 250
CC(CCO)n1cc(S(=O)(=O)Nc2ccc(Cl)c3c(C#N)c[nH]c23)cn1 (stereo not drawn) [Compound 237, N-(4-chloro-3-cyano-1H-indol-7-yl)-1-(3-hydroxy-1-methyl-propyl)pyrazole-4-sulfonamide]	< 250	< 250
Cn1cc(S(=O)(=O)Nc2ccc(Cl)c3c(Cl)c[nH]c23)cn1 [Compound 81, N-(3,4-dichloro-1H-indol-7-yl)-1-methyl-pyrazole-4-sulfonamide]	< 250	< 250
Cc1ccc(NS(=O)(=O)c2cnn(CCC(C)(C)O)c2)c2[nH]cc(C#N)c12 [Compound 221, N-(3-cyano-4-methyl-1H-indol-7-yl)-1-(3-hydroxy-3-methyl-butyl)pyrazole-4-sulfonamide]	< 250	< 250
Cc1ccc(NS(=O)(=O)c2cnn(CC(=O)N(C)C)c2)c2[nH]cc(C#N)c12 [Compound 140, 2-[4-[(3-cyano-4-methyl-1H-indol-7-yl)sulfamoyl]pyrazol-1-yl]-N,N-dimethyl-acetamide]	> 1000	250 to 1000
N#Cc1c[nH]c2c(NS(=O)(=O)c3cnn(C(CO)(CO)CCl)c3)ccc(Cl)c12 [Compound 164, N-(4-chloro-3-cyano-1H-indol-7-yl)-1-[1-(chloromethyl)-2-hydroxy-1-(hydroxymethyl)ethyl]pyrazole-4-sulfonamide]	250 to 1000	< 250
Cc1ccc(NS(=O)(=O)c2cnn(CC3(F)CNC3)c2)c2[nH]cc(C#N)c12 [Compound 257, N-(3-cyano-4-methyl-1H-indol-7-yl)-1-[(3-fluoroazetidin-3-yl)methyl]pyrazole-4-sulfonamide]	250 to 1000	< 250
